# Several values for one entry are separate records, joined by “and”; a condition that tells them apart may be missing. Equal values may be shown once. Read-outs that look alike come from different tables or passages of the source.
# Legend:
# [1] = cited from earlier work; for patients who experienced diarrhea: in some studies
# ALK-positive NSCLC [2] = details: cited from earlier work
# wild-type ALK = wild-type ALK (Homo sapiens, UniProt Q9UM73); experiment: Biochemical kinase assay
# EphA1 = target: T1, EphA1 (Homo sapiens, UniProt P21709); experiment: Biochemical kinase assay
# T1 sequence (P21709 26-976): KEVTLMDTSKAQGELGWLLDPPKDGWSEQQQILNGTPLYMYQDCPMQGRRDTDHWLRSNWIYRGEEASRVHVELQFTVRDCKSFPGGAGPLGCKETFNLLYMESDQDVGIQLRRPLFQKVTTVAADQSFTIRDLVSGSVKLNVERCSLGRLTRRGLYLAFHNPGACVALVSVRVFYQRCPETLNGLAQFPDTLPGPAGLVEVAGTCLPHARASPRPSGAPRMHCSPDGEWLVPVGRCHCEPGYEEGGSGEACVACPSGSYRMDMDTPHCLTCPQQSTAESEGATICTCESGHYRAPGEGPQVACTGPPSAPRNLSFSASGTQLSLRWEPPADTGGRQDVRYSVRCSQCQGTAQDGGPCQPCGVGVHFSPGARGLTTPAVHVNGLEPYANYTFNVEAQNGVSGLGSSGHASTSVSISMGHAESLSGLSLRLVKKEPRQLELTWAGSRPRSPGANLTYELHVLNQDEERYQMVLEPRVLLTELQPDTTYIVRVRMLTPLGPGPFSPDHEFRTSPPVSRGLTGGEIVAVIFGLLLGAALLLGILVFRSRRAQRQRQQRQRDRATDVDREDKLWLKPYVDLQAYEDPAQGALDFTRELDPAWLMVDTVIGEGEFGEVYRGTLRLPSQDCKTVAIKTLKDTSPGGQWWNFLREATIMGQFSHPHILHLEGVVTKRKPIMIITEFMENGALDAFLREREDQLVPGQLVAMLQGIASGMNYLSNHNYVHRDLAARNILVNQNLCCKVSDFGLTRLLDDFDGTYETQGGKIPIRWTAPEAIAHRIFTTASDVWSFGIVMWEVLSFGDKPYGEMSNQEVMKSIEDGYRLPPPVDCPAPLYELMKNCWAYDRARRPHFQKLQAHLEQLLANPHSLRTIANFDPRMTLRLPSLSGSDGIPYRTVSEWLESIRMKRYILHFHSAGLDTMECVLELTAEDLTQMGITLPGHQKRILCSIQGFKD
# ALK T1151 mutant = ALK T1151 mutant (Homo sapiens, UniProt Q9UM73); experiment: Biochemical kinase assay
# Phase I/II trial, safety = type: in vivo
# ALK F1174 mutant = ALK F1174 mutant (Homo sapiens, UniProt Q9UM73); experiment: Biochemical kinase assay
# [3] = tested on: ALK fusions engineered to have point mutation C1156Y; details: mutation associated with crizotinib resistance; cited from earlier work
# [4] = Phase I/II trial, plasma pharmacokinetics; type: in vivo, human
# TRKC = TRKC (Homo sapiens, UniProt Q16288); experiment: Biochemical kinase assay
# c-MET = c-MET (Homo sapiens, UniProt P08581); experiment: Biochemical kinase assay
# ALK S1206R mutant = ALK S1206R mutant (Homo sapiens, UniProt Q9UM73, S1206R); experiment: Biochemical kinase assay
# ALK L1196M mutant = ALK L1196M mutant (Homo sapiens, UniProt Q9UM73, L1196M); experiment: Biochemical kinase assay
# [5] = tested on: ALK fusions engineered to have point mutation L1196M; details: mutation associated with crizotinib resistance; cited from earlier work
# GOPC-ROS1 = GOPC-ROS1 (Homo sapiens, UniProt P08922); experiment: Biochemical kinase assay
# [6] = tested on: ALK-positive lung cancer cell lines; details: cited from earlier work
# EphB1 = target: T2, EphB1 (Homo sapiens, UniProt P54762); experiment: Biochemical kinase assay
# T2 sequence (P54762 18-984): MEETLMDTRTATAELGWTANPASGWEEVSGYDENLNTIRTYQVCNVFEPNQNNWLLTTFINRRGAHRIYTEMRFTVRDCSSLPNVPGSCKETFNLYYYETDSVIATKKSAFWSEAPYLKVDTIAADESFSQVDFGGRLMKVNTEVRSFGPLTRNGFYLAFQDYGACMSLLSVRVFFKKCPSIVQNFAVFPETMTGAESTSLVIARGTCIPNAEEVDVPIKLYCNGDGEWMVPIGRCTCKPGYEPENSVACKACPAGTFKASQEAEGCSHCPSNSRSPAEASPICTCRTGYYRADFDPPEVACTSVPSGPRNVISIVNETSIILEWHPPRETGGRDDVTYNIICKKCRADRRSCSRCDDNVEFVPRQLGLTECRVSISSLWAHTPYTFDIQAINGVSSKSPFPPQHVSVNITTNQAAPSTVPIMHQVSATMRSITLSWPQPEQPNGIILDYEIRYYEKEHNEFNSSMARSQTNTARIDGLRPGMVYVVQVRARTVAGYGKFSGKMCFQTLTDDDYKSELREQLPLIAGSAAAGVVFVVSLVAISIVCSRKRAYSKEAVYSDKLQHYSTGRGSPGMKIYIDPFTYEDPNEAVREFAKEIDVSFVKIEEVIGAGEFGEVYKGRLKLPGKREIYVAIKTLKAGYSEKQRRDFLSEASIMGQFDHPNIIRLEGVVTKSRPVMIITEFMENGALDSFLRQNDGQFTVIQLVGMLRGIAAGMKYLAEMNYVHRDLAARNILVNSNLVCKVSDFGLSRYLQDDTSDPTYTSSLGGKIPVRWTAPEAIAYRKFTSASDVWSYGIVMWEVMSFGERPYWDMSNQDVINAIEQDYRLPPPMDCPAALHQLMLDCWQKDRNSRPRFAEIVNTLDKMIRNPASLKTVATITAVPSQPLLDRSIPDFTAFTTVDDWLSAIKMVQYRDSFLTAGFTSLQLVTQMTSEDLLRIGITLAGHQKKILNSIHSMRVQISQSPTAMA
# ALK-positive NSCLC [7] = experiment: Phase I/II trial, antitumor activity; type: in vivo, human
# ALK C1156Y mutant = ALK C1156Y mutant (Homo sapiens, UniProt Q9UM73, C1156Y); experiment: Biochemical kinase assay
# EphA2 = EphA2 (Homo sapiens, UniProt P29317); experiment: Biochemical kinase assay
# [8] = tested on: H3122 lung cancer xenografts (EML4-ALK E13;A20 fusion); details: cited from earlier work
# ALK variants = experiment: Biochemical kinase assay; details: read-out: in vitro IC50s, all evaluated ALK variants; wild-type ALK and 17 ALK variants
# TPM3-TRKA = TPM3-TRKA (Homo sapiens, UniProt P04629); experiment: Biochemical kinase assay
# ALK-positive NSCLC [9] = details: crizotinib-refractory population; cited from earlier work
# [10] = ALK-positive efficacy evaluable patients, ≥200 mg, n=60
# [11] = patients with baseline CNS target lesions, n=14, ≥200 mg
# [12] = prior crizotinib and at least one second-generation ALK TKI, n=16
# ALK L1196M mutant, sequence (Q9UM73 19-1620 L1196M): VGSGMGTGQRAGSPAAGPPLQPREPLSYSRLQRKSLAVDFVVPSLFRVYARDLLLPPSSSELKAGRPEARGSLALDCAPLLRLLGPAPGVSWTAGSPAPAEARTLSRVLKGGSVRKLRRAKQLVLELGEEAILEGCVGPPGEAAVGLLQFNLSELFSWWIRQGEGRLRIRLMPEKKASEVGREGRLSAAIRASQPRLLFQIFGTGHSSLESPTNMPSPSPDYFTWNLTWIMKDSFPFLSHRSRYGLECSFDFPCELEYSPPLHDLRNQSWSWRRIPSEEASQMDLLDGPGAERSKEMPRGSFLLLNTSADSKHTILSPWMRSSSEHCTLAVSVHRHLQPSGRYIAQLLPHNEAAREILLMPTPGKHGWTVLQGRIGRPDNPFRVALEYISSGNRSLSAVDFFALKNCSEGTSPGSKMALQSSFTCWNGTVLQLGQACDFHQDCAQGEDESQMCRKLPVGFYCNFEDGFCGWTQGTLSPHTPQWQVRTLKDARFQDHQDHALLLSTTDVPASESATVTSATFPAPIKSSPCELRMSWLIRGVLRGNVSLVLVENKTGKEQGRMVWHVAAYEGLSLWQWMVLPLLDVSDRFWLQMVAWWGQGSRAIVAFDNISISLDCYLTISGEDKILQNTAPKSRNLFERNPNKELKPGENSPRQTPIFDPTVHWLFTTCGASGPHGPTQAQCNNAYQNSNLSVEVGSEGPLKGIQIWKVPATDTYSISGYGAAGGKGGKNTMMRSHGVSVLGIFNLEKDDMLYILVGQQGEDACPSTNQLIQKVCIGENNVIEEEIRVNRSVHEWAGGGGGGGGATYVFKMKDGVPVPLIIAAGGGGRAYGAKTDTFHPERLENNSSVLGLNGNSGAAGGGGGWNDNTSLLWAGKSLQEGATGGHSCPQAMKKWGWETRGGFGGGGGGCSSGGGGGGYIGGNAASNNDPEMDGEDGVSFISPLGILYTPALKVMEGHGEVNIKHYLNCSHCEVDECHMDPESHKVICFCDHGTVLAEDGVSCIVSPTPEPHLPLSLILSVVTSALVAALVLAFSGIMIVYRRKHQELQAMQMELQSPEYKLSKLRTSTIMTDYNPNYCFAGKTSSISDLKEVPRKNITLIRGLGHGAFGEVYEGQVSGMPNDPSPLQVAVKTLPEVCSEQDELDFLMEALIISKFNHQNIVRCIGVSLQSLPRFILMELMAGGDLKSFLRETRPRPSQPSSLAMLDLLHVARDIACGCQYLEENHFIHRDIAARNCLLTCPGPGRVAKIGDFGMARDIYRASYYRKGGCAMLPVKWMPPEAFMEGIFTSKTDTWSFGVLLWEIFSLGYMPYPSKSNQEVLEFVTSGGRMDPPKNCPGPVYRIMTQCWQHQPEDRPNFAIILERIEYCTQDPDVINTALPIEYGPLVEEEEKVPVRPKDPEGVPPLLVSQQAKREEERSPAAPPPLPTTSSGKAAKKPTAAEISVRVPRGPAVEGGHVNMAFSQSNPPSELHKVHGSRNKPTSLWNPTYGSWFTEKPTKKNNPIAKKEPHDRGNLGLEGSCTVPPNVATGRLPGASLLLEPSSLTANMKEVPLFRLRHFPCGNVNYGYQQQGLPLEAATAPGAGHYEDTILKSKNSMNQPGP
# ALK S1206R mutant, sequence (Q9UM73 19-1620 S1206R): as the sequence (Q9UM73 19-1620 L1196M) above, with M1178L, S1188R counted along it
# wild-type ALK, sequence (Q9UM73 19-1620): as the sequence (Q9UM73 19-1620 L1196M) above, with M1178L counted along it
# TPM3-TRKA, sequence (P04629 399-796): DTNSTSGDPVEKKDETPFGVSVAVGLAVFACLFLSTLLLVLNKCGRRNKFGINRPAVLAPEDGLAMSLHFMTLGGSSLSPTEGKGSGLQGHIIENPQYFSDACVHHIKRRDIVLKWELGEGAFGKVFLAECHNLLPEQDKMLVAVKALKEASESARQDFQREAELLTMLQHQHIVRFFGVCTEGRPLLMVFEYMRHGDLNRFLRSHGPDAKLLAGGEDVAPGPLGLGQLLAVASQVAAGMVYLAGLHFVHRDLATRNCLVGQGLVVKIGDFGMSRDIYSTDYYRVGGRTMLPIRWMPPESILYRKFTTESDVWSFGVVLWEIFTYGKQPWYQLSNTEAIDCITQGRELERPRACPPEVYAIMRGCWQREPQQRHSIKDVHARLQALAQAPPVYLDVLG
# TPM3-TRKA, sequence (P06753 2-258 partner): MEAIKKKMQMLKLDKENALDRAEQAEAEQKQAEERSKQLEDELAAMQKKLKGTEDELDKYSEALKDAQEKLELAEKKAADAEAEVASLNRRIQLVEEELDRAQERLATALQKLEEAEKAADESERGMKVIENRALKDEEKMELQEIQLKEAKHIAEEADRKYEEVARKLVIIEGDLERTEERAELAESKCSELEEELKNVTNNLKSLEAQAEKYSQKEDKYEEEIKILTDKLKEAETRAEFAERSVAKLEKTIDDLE
# TRKC, sequence (Q16288 32-839): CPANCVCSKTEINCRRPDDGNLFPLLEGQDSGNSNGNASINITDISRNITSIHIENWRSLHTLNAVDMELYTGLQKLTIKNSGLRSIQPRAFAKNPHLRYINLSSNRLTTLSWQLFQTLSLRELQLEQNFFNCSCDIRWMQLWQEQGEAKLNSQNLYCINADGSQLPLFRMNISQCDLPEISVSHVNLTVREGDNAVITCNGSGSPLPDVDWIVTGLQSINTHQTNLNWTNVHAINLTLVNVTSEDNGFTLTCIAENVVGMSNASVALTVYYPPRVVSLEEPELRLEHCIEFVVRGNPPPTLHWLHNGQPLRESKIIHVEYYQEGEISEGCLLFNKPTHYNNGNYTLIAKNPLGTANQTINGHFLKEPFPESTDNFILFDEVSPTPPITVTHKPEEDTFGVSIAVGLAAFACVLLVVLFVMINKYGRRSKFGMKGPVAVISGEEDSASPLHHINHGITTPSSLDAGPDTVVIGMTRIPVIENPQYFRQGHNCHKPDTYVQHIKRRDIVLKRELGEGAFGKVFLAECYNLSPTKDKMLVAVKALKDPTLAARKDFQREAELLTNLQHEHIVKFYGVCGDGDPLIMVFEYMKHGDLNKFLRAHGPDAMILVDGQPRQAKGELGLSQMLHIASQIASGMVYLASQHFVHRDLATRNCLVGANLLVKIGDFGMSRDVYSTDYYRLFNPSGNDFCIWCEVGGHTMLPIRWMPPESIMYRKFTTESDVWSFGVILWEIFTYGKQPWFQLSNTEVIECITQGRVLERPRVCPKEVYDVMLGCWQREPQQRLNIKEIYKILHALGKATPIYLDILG
# c-MET, sequence (P08581 25-1390): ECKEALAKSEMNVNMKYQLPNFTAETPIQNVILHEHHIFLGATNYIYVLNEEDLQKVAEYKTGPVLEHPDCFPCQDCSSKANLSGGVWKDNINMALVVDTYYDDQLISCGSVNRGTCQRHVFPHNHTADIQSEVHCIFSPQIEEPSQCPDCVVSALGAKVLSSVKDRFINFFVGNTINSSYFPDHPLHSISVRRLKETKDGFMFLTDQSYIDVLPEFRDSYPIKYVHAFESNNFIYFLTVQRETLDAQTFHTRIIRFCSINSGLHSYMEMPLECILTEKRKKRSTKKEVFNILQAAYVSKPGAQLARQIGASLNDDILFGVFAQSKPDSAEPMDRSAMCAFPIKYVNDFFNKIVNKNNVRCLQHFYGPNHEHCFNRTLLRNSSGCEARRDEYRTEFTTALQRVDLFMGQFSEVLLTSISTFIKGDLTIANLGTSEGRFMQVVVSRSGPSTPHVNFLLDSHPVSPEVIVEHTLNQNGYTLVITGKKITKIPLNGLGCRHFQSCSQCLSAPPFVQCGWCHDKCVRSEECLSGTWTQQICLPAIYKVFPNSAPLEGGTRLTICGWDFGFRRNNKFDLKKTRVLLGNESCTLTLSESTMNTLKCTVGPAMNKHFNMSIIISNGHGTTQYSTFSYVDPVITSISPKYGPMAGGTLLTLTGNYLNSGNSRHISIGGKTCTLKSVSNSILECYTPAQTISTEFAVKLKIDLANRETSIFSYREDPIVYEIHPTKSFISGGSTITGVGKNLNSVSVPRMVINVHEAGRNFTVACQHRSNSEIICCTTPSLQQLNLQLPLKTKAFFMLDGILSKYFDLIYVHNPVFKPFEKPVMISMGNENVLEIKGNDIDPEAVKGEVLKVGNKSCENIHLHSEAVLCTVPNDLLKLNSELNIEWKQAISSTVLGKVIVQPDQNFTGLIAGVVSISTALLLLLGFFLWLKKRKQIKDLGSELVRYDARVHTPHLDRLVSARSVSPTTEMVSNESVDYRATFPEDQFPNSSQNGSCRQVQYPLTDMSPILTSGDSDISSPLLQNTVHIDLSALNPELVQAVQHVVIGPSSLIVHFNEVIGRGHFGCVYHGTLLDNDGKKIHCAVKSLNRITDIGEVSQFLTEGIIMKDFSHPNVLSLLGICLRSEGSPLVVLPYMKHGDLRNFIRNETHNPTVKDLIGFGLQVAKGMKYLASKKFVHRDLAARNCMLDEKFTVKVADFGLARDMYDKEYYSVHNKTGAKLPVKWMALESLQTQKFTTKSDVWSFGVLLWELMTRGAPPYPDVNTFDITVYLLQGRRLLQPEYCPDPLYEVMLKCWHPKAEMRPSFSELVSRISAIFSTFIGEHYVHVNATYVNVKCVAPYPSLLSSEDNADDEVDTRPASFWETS
# GOPC-ROS1, sequence (P08922 1881-2347, other chains not shown): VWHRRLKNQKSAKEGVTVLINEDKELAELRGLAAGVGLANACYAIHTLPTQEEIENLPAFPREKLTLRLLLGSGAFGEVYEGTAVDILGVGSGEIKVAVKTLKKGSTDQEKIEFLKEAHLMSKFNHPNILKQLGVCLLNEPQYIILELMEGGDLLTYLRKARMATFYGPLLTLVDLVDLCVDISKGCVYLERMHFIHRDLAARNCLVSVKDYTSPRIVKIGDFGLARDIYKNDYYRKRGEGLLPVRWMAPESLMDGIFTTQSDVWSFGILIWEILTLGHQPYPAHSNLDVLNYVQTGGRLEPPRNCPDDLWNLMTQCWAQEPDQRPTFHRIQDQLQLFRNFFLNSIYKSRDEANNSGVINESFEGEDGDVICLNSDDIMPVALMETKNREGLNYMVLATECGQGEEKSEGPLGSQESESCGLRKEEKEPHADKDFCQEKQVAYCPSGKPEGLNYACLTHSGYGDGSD
# ALK C1156Y mutant, sequence (Q9UM73 19-1620 C1156Y): as the sequence (Q9UM73 19-1620 L1196M) above, with C1138Y, M1178L counted along it
smiles,measurement,setting,value
Cc1cc(Nc2ncc(Cl)c(Nc3ccccc3S(=O)(=O)C(C)C)n2)c(OC(C)C)cc1C1CCNCC1 [ceritinib],patients with vomiting,[1],majority of patients
same,patients who experienced diarrhea,[1],75%
same,patients discontinuing therapy,ALK-positive NSCLC [2],10%
same,patients who experienced a SAE,ALK-positive NSCLC [2],38%
same,patients with a dose interruption,ALK-positive NSCLC [2],66%
same,RR,ALK-positive NSCLC [2]; first line,73%
same,intracranial response,ALK-positive NSCLC [2]; first line,57%
same,median PFS,ALK-positive NSCLC [2]; first line,16.6 months
C[C@@H]1CN(C(=O)c2ccc(NC(=O)c3cc(O[C@H](C)c4c(Cl)ccc(F)c4Cl)c(N)nn3)cc2)C[C@H](C)N1 [ensartinib],IC50,wild-type ALK,< 0.4 nM
same,IC50,EphA1,1 to 10 nM
same,IC50,ALK T1151 mutant,< 0.4 nM
same,maximum tolerated dose,"Phase I/II trial, safety; 25-250 mg once daily",not reached
same,deaths related to ensartinib,"Phase I/II trial, safety; as considered by the sponsor",no deaths
same,"Constipation, All grades","Phase I/II trial, safety; human, in vivo",11 (11%)
same,"Constipation, Grade ≥3","Phase I/II trial, safety; human, in vivo",0
same,"Decreased Appetite, All grades","Phase I/II trial, safety; human, in vivo",18 (19%)
same,"Decreased Appetite, Grade ≥3","Phase I/II trial, safety; human, in vivo",1 (1%)
same,"Diarrhea, All grades","Phase I/II trial, safety; human, in vivo",11 (11%)
same,"Diarrhea, Grade ≥3","Phase I/II trial, safety; human, in vivo",0
same,"Dry Skin, All grades","Phase I/II trial, safety; human, in vivo",14 (14%)
same,"Dry Skin, Grade ≥3","Phase I/II trial, safety; human, in vivo",1 (1%)
same,"Edema, All grades","Phase I/II trial, safety; human, in vivo",15 (15%)
same,"Edema, Grade ≥3","Phase I/II trial, safety; human, in vivo",1 (1%)
same,"Elevated aspartate aminotransferase, All grades","Phase I/II trial, safety; human, in vivo",12 (12%)
same,"Elevated aspartate aminotransferase, Grade ≥3","Phase I/II trial, safety; human, in vivo",1 (1%)
same,"Fatigue, All grades","Phase I/II trial, safety; human, in vivo",21 (22%)
same,"Fatigue, Grade ≥3","Phase I/II trial, safety; human, in vivo",2 (2%)
same,"Nausea, All grades","Phase I/II trial, safety; human, in vivo",35 (36%)
same,"Nausea, Grade ≥3","Phase I/II trial, safety; human, in vivo",1 (1%)
same,"Pruritus, All grades","Phase I/II trial, safety; human, in vivo",27 (28%)
same,"Pruritus, Grade ≥3","Phase I/II trial, safety; human, in vivo",5 (5%)
same,"Rash, All grades","Phase I/II trial, safety; human, in vivo",54 (56%)
same,"Rash, Grade ≥3","Phase I/II trial, safety; human, in vivo",12 (12%)
same,"Vomiting, All grades","Phase I/II trial, safety; human, in vivo",25 (26%)
same,"Vomiting, Grade ≥3","Phase I/II trial, safety; human, in vivo",1 (1%)
same,drug-related diarrhea,"Phase I/II trial, safety; human, in vivo",11%
same,patients permanently discontinued due to related toxicity,"Phase I/II trial, safety; human, in vivo",5.2%
same,patients requiring at least one dose reduction due to treatment-related toxicity,"Phase I/II trial, safety; human, in vivo",25%
same,patients with treatment-related Grade 3-4 AEs,"Phase I/II trial, safety; human, in vivo",23%
same,treatment-related fatigue,"Phase I/II trial, safety; human, in vivo",22%
same,treatment-related nausea,"Phase I/II trial, safety; human, in vivo",36%
same,treatment-related pruritus,"Phase I/II trial, safety; human, in vivo",28%
same,treatment-related vomiting,"Phase I/II trial, safety; human, in vivo",26%
same,recommended phase II dose (RP2D),"Phase I/II trial, safety; human, in vivo, 28 days",225 mg
same,patients who died while on study,"Phase I/II trial, safety; n=97",Five
same,IC50,ALK F1174 mutant,< 0.4 nM
same,inhibition of ALK fusion with C1156Y,[3],potently inhibited
same,impact of food on absorption,"[4]; 225 mg, food consumed within 30 minutes after taking ensartinib",minimal impact
same,increase in mean day 22 AUC from 225 to 250 mg,"[4]; fasted, 11% increase in dose",36%
same,dose proportionality of mean day 22 Cmax and AUC,"[4]; fasted, 200-225 mg",slightly more than dose proportionally
same,dose proportionality of mean day 22 Cmax and AUC,"[4]; fasted, 225-250 mg",significantly more than dose proportionally
same,dose proportionality of mean day 22 Cmax and AUC,"[4]; human, in vivo",increased dose proportionally
same,IC50,TRKC,< 1 nM
same,IC50,c-MET,1 to 10 nM
same,IC50,ALK S1206R mutant,< 0.4 nM
same,IC50,ALK L1196M mutant,< 0.4 nM
same,inhibition of ALK fusion with L1196M,[5],potently inhibited
same,IC50,GOPC-ROS1,< 1 nM
same,potency relative to crizotinib at inhibiting growth,[6],10 fold
same,IC50,EphB1,1 to 10 nM
same,median DOR,"ALK-positive NSCLC [7]; ALK TKI naïve patients, n=12",24.4 months
same,median PFS,ALK-positive NSCLC [7]; ALK TKI-naïve patients,26.2 months
same,disease control rate (DCR),"ALK-positive NSCLC [7]; ALK TKI-naïve patients, n=15",86.7%
same,response rate (RR),"ALK-positive NSCLC [7]; ALK TKI-naïve patients, n=15",80%
same,disease control rate (DCR),ALK-positive NSCLC [7]; [10],81.7%
same,patients with tumor regression,ALK-positive NSCLC [7]; [10],80%
same,median DOR,"ALK-positive NSCLC [7]; ALK-positive evaluable patients, n=35",12.8 months
same,median PFS,"ALK-positive NSCLC [7]; ALK-positive evaluable patients, ≥200 mg",9.2 months
same,median DOR,"ALK-positive NSCLC [7]; crizotinib and a second-generation ALK TKI, n=4",4.4 months
same,intracranial DCR,ALK-positive NSCLC [7]; [11],92.9%
same,intracranial response rate,ALK-positive NSCLC [7]; [11],64% and 64.3%
same,patients with intracranial tumor regression,ALK-positive NSCLC [7]; [11],78.6%
same,disease control rate (DCR),ALK-positive NSCLC [7]; [12],50.0%
same,response rate (RR),ALK-positive NSCLC [7]; [12],25%
same,median PFS,ALK-positive NSCLC [7]; prior crizotinib only,9.0 months
same,median DOR,"ALK-positive NSCLC [7]; prior crizotinib only, n=19",7.4 months
same,disease control rate (DCR),"ALK-positive NSCLC [7]; prior crizotinib only, n=29",96.6%
same,response rate (RR),"ALK-positive NSCLC [7]; prior crizotinib only, n=29",69%
same,median intracranial DOR,"ALK-positive NSCLC [7]; responding patients with CNS target lesions at baseline, n=9, ≥200 mg",5.7 months
same,IC50,ALK C1156Y mutant,< 0.4 nM
same,IC50,EphA2,1 to 10 nM
same,antitumor activity in xenografts,[8],potent antitumor activity
same,IC50,ALK variants,< 4 nM
same,IC50,TPM3-TRKA,< 1 nM
COc1cc(N2CCC(N3CCN(C)CC3)CC2)ccc1Nc1ncc(Cl)c(Nc2ccccc2P(C)(C)=O)n1 [brigatinib],RR,ALK-positive NSCLC [9],54%
same,median PFS,ALK-positive NSCLC [9],12.9 months
same,patients who experienced diarrhea,[1],41%
